Test results published in ChEMBL document CHEMBL1240295, “Specificity and mechanism of action of some commonly used protein kinase inhibitors” (Biochem J, 2000).

What was measured:
[1] = molecular target: T1, MAP kinase-activated protein kinase 5 (Homo sapiens) (UniProt Q8IW41); assay: Inhibition of His-tagged human PRAK expressed in Sf9 cells at 50 uM; values are per cent of control
T1 sequence (whole entry): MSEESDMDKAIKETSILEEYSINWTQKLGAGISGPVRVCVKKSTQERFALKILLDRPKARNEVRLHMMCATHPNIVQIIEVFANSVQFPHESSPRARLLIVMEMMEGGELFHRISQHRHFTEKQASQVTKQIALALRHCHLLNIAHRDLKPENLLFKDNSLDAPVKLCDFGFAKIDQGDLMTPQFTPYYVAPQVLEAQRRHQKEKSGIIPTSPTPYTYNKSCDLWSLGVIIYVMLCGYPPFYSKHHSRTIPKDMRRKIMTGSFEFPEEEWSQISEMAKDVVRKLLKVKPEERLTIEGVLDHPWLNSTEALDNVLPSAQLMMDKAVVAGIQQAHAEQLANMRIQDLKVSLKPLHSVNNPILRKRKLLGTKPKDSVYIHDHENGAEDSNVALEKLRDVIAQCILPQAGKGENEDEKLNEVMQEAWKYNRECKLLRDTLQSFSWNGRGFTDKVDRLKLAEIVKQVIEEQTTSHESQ

[2] = molecular target: RAC-alpha serine/threonine-protein kinase (Homo sapiens) (UniProt P31749); assay: Inhibition of human PKBalpha expressed in SF9 cells at 50 uM; values are per cent of control
[3] = molecular target: Mitogen-activated protein kinase 11 (Homo sapiens) (UniProt Q15759); assay: Inhibition of His-tagged human SAPK2b/p38b2 expressed in Escherichia coli at 50 uM; values are per cent of control
[4] = molecular target: Protein kinase C alpha type (Homo sapiens, UniProt P17252); assay: Inhibition of His-tagged human PKCalpha expressed in Escherichia coli at 50 uM; values are per cent of control
[5] = organism: Bos taurus; assay: Inhibition of bovine heart PKA at 50 uM; values are per cent of control
[6] = molecular target: T2, Serine/threonine-protein kinase Sgk1 (Homo sapiens) (UniProt O00141); assay: Inhibition of His-tagged human SGK expressed in Sf9 cells at 50 uM; values are per cent of control
T2 sequence (whole entry): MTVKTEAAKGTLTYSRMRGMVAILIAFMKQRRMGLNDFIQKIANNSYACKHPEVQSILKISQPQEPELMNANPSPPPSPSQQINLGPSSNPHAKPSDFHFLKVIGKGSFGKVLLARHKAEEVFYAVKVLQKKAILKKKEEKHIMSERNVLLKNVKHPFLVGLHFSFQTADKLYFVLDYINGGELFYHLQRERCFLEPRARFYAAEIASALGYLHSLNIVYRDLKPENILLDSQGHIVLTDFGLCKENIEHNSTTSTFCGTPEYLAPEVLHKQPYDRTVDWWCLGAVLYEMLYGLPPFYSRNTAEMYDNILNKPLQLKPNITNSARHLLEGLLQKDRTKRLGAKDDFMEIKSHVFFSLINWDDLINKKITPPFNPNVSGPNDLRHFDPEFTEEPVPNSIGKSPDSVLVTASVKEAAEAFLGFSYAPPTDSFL

[7] = molecular target: T3, Ribosomal protein S6 kinase beta-1 (Homo sapiens, UniProt P23443); assay: Inhibition of His-tagged human S6K1 expressed in Escherichia coli at 50 uM; values are per cent of control
[8] = organism: Oryctolagus cuniculus; assay: Inhibition of rabbit MKK1 expressed in Escherichia coli at 50 uM; values are per cent of control
[9] = molecular target: T4, MAP kinase-activated protein kinase 2 (Homo sapiens, UniProt P49137); assay: Inhibition of His-tagged human MAPKAPK2 expressed in Escherichia coli at 50 uM; values are per cent of control
[10] = molecular target: Mitogen-activated protein kinase 8 (Homo sapiens) (UniProt P45983); assay: Inhibition of His-tagged human JNK1a1/SAPK1c expressed in Escherichia coli at 50 uM; values are per cent of control
[11] = molecular target: [Pyruvate dehydrogenase (acetyl-transferring)] kinase isozyme 1, mitochondrial (Homo sapiens) (UniProt Q15118); assay: Inhibition of His-tagged human PDK1 expressed in Sf21 cells at 50 uM; conditions: values are per cent of control
[12] = molecular target: Phosphatidylinositol 4,5-bisphosphate 3-kinase catalytic subunit alpha isoform (Bos taurus) (UniProt P32871); conditions: Sf9, 50 uM
Description: Inhibition of His-tagged bovine PI3K expressed in Sf9 cells at 50 uM

[13] = molecular target: Casein kinase II (Homo sapiens, UniProt P19784+P67870+P68400); assay: Inhibition of His-tagged human CK2 expressed in Sf9 cells
[14] = molecular target: Rho-associated protein kinase 2 (Rattus norvegicus) (UniProt Q62868); assay: Inhibition of rat ROCK2 expressed in Sf9 cells at 50 uM; conditions: values are per cent of control
[15] = molecular target: T5, Mitogen-activated protein kinase 13 (Homo sapiens) (UniProt O15264); assay: Inhibition of His-tagged human SAPK4/p38delta expressed in Escherichia coli at 50 uM; values are per cent of control
T5 sequence (whole entry): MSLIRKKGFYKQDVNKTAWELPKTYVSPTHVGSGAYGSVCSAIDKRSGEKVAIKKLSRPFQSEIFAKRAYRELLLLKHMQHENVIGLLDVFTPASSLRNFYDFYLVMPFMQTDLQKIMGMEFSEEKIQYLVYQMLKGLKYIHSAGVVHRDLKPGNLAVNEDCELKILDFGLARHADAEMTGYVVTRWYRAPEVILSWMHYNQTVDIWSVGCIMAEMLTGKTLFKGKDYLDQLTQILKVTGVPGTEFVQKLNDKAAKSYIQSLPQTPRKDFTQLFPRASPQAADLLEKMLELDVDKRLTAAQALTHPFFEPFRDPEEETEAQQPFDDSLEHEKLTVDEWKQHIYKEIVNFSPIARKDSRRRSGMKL

[16] = molecular target: T6, Ribosomal protein S6 kinase alpha-5 (Homo sapiens, UniProt O75582); assay: Inhibition of His-tagged human MSK1 expressed in Sf9 cells at 50 uM; values are per cent of control
[17] = molecular target: Mitogen-activated protein kinase 1 (Homo sapiens) (UniProt P28482); assay: Inhibition of His-tagged human MAPK2/ERK2 expressed in Escherichia coli at 50 uM; values are per cent of control
[18] = molecular target: T7, Glycogen synthase kinase-3 beta (Homo sapiens, UniProt P49841); assay: Inhibition of His-tagged human GSK3b expressed in Sf21 cells at 50 uM; values are per cent of control
[19] = molecular target: T8, Casein kinase II (Homo sapiens) (UniProt P67870+P68400+P19784); assay: Inhibition of His-tagged human CK2 expressed in Sf9 cells at 50 uM; values are per cent of control
[20] = organism: Oryctolagus cuniculus; assay: Inhibition of PHK from rabbit skeletal muscle at 50 uM; values are per cent of control; conditions: Muscle tissue
[21] = organism: Rattus norvegicus; assay: Inhibition of rat liver AMPK at 50 uM; values are per cent of control
[22] = molecular target: T9, Serine/threonine-protein kinase Chk1 (Homo sapiens) (UniProt O14757); assay: Inhibition of His-tagged human CHK1 expressed in Escherichia coli at 50 uM; values are per cent of control
T9 sequence (whole entry): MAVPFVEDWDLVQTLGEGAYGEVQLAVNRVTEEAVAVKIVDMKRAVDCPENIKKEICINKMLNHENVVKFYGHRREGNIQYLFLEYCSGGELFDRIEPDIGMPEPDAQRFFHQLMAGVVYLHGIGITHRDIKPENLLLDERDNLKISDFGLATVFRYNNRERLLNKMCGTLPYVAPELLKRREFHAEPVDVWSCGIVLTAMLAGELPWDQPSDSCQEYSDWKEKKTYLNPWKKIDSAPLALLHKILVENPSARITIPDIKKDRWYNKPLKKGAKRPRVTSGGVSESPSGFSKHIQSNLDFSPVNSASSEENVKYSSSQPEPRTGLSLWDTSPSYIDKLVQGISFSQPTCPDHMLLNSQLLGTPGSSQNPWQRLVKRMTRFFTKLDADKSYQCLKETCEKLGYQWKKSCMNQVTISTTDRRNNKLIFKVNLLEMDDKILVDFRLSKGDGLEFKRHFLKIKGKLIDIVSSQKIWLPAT

[23] = organism: Oryctolagus cuniculus; assay: Inhibition of MAPKAPK1b from rabbit skeletal muscle at 50 uM; values are per cent of control; conditions: Muscle tissue
[24] = organism: Bos taurus; conditions: at 10 µM
Description: Inhibition of bovine heart PKA at 10 uM

[25] = molecular target: T3, Ribosomal protein S6 kinase beta-1; conditions: at 10 µM
Description: Inhibition of His-tagged human S6K1 expressed in Escherichia coli at 10 uM

[26] = molecular target: T6, Ribosomal protein S6 kinase alpha-5; conditions: Sf9, at 10 µM
Description: Inhibition of His-tagged human MSK1 expressed in Sf9 cells at 10 uM

[27] = organism: Rattus norvegicus; conditions: at 10 µM
Description: Inhibition of rat liver AMPK at 10 uM

[28] = molecular target: T5, Mitogen-activated protein kinase 13 (Homo sapiens); conditions: at 10 µM
Description: Inhibition of Gst-tagged human SAPK4/p38delta expressed in Escherichia coli at 10 uM

[29] = molecular target: T2, Serine/threonine-protein kinase Sgk1 (Homo sapiens); conditions: Sf9, at 10 µM
Description: Inhibition of His-tagged human SGK expressed in Sf9 cells at 10 uM

[30] = molecular target: T7, Glycogen synthase kinase-3 beta; conditions: Sf21, at 10 µM
Description: Inhibition of His-tagged human GSK3b expressed in Sf21 cells at 10 uM

[31] = molecular target: 3-phosphoinositide-dependent protein kinase 1 (Homo sapiens) (UniProt O15530); conditions: Sf21, at 10 µM
[32] = molecular target: Mitogen-activated protein kinase 11 (Homo sapiens) (UniProt Q15759); conditions: at 10 µM
Description: Inhibition of Gst-tagged human SAPK2b/p38--beta-2 expressed in Escherichia coli at 10 uM

[33] = molecular target: Tyrosine-protein kinase Lck (Homo sapiens) (UniProt P06239); conditions: Sf9, at 10 µM
Description: Inhibition of His-tagged human LCK expressed in Sf9 cells at 10 uM

[34] = molecular target: T1, MAP kinase-activated protein kinase 5 (Homo sapiens); conditions: Sf9, at 10 µM
Description: Inhibition of His-tagged human PRAK expressed in Sf9 cells at 10 uM

[35] = molecular target: RAC-alpha serine/threonine-protein kinase (Homo sapiens) (UniProt P31749); conditions: Sf9, at 10 µM
Description: Inhibition of human PKBalpha expressed in SF9 cells at 10 uM

[36] = molecular target: Rho-associated protein kinase 2 (Rattus norvegicus) (UniProt Q62868); conditions: Sf9, at 10 µM
Description: Inhibition of rat ROCK2 expressed in Sf9 cells at 10 uM

[37] = molecular target: T9, Serine/threonine-protein kinase Chk1 (Homo sapiens); conditions: at 10 µM
Description: Inhibition of His-tagged human CHK1 expressed in Escherichia coli at 10 uM

[38] = Inhibition of His-tagged human CAMK2 expressed in Escherichia coli
[39] = molecular target: T8, Casein kinase II (Homo sapiens); conditions: Sf9, at 10 µM
Description: Inhibition of His-tagged human CK2 expressed in Sf9 cells at 10 uM

[40] = organism: Oryctolagus cuniculus; conditions: at 10 µM
Description: Inhibition of rabbit MKK1 expressed in Escherichia coli at 10 uM

[41] = organism: Oryctolagus cuniculus; conditions: Muscle tissue, at 10 µM
Description: Inhibition of PHK from rabbit skeletal muscle at 10 uM

[42] = organism: Homo sapiens; assay: Inhibition of His-tagged human CAMK2 expressed in Escherichia coli at 10 uM
[43] = molecular target: Mitogen-activated protein kinase 8 (Homo sapiens) (UniProt P45983); conditions: at 10 µM
Description: Inhibition of Gst-tagged human JNK1a1 expressed in Escherichia coli at 10 uM

[44] = molecular target: Mitogen-activated protein kinase 1 (Homo sapiens) (UniProt P28482); conditions: at 10 µM
Description: Inhibition of Gst-tagged human MAPK2/ERK2 expressed in Escherichia coli at 10 uM

[45] = organism: Oryctolagus cuniculus; conditions: Muscle tissue, at 10 µM; remark: listed apart in the source
Description: Inhibition of MAPKAPK1b from rabbit skeletal muscle at 10 uM

[46] = molecular target: T4, MAP kinase-activated protein kinase 2; conditions: at 10 µM
Description: Inhibition of Gst-tagged human MAPKAPK2 expressed in Escherichia coli at 10 uM

[47] = molecular target: Myosin light chain kinase, smooth muscle (Gallus gallus) (UniProt P11799); assay: Inhibition of chicken SmMLCK expressed in Escherichia coli at 10 uM; conditions: Ovis aries

T4 sequence (P49137 whole entry, looked up): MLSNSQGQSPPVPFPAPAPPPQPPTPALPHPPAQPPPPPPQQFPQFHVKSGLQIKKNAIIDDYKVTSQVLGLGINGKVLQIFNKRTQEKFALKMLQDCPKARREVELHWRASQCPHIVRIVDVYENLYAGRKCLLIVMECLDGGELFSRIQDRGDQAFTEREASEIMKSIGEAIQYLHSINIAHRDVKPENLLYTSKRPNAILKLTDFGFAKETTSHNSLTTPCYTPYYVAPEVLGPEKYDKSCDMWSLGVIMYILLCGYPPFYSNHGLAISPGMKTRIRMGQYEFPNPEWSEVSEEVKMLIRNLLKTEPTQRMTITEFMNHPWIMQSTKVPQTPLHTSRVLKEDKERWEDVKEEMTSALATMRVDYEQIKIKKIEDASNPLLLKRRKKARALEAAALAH
Chain of RAC-alpha serine/threonine-protein kinase (Homo sapiens) (P31749 whole entry): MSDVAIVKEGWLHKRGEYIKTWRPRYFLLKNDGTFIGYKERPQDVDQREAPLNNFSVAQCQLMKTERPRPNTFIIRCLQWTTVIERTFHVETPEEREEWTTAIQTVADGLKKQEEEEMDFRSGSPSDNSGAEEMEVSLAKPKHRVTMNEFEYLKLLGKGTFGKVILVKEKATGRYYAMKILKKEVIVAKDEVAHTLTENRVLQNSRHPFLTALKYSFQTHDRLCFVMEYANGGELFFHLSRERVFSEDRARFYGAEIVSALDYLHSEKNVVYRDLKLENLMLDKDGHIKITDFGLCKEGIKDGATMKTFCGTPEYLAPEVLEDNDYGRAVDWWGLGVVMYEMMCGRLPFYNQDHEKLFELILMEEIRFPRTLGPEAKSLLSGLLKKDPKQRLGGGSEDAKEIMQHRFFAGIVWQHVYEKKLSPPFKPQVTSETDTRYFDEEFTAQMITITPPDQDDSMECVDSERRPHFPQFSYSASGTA
T3 sequence (P23443 whole entry, looked up): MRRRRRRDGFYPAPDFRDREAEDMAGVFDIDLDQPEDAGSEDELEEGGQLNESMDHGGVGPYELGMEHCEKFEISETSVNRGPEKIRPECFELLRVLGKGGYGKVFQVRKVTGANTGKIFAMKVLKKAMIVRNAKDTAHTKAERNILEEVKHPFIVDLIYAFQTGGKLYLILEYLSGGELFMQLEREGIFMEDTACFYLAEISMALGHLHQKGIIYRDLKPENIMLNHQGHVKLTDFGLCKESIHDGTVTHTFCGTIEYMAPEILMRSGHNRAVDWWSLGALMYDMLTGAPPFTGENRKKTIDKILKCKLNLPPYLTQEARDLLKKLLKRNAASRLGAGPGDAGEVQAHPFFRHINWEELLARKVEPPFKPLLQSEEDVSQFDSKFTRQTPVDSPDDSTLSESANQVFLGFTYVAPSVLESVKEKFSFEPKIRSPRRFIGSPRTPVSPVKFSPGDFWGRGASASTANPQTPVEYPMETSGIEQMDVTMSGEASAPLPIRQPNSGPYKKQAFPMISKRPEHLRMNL
Chain of Mitogen-activated protein kinase 1 (Homo sapiens) (P28482 whole entry): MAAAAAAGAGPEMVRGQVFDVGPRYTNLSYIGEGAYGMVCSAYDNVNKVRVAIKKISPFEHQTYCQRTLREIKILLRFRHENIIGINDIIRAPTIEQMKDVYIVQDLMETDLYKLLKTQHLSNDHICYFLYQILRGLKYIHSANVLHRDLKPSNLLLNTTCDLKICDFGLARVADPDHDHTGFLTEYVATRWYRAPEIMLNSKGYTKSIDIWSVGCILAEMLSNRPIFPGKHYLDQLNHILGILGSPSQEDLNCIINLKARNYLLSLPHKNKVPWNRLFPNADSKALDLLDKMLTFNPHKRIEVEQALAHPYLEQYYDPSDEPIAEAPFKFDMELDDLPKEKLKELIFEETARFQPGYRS
Chain of Rho-associated protein kinase 2 (Rattus norvegicus) (Q62868 whole entry, looked up): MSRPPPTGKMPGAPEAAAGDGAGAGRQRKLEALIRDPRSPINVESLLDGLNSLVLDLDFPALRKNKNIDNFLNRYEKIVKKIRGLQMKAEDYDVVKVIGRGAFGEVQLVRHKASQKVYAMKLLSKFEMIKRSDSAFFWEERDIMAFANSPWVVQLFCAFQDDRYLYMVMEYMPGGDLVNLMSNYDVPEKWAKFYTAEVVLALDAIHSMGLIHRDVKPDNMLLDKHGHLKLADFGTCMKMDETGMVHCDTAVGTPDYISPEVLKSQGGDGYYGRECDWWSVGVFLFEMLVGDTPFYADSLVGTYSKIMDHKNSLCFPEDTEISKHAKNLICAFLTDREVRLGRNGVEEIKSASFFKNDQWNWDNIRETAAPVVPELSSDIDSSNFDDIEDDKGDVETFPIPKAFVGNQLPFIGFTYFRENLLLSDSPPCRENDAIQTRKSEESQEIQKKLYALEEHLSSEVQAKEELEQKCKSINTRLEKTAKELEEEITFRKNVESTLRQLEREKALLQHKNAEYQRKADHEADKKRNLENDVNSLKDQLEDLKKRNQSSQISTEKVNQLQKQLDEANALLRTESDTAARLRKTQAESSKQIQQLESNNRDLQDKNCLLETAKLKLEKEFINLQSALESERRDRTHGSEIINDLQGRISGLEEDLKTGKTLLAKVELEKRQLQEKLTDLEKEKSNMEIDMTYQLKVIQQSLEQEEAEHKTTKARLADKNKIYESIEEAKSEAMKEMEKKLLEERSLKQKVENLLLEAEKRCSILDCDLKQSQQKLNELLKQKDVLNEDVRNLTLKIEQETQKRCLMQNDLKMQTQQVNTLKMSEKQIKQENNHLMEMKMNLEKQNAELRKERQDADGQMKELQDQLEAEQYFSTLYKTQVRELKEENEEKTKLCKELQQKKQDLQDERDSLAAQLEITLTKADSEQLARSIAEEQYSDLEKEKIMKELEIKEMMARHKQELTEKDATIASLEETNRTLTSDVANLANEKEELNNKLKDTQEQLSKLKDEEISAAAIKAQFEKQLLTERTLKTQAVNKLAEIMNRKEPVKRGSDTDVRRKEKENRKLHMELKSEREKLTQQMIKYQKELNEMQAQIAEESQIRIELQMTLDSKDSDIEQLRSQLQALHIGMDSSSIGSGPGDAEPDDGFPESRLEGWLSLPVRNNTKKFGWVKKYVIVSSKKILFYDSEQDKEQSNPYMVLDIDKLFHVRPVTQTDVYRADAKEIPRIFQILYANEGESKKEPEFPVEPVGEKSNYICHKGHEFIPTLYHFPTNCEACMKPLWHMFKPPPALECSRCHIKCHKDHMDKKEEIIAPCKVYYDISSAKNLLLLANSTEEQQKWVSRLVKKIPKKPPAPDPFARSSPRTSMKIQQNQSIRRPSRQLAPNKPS
T6 sequence (O75582 whole entry, looked up): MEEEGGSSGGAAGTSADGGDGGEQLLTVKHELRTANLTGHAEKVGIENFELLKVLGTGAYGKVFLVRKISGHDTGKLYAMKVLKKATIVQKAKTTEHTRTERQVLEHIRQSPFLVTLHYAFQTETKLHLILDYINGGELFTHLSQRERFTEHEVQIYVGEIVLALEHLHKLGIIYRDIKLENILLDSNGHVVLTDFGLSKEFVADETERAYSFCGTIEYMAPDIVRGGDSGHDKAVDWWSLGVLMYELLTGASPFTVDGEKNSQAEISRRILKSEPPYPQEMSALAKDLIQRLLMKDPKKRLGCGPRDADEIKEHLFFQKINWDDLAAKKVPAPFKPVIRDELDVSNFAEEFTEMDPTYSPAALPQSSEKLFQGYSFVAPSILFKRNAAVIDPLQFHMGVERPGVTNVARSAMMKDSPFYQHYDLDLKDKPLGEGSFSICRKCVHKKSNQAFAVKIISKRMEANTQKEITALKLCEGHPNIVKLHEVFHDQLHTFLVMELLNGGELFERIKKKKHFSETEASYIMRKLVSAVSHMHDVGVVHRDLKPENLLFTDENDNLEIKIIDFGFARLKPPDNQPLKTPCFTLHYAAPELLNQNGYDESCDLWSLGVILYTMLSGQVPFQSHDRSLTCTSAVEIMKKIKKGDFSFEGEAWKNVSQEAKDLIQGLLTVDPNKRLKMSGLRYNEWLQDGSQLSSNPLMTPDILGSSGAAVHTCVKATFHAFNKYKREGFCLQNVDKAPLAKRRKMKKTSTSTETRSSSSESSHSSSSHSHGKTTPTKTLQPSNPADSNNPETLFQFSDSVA
Chain of Mitogen-activated protein kinase 11 (Homo sapiens) (Q15759 whole entry): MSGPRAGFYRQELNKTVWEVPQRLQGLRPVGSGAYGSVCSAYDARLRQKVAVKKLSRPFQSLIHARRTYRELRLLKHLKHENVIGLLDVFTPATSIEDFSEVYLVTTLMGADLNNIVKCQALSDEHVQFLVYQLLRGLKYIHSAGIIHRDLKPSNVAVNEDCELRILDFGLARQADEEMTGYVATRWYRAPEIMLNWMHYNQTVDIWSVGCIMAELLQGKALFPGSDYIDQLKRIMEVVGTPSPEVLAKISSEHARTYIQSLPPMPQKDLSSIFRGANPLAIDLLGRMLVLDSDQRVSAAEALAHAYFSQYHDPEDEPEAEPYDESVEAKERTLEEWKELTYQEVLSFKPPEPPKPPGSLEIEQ
Chain of Mitogen-activated protein kinase 8 (Homo sapiens) (P45983 whole entry): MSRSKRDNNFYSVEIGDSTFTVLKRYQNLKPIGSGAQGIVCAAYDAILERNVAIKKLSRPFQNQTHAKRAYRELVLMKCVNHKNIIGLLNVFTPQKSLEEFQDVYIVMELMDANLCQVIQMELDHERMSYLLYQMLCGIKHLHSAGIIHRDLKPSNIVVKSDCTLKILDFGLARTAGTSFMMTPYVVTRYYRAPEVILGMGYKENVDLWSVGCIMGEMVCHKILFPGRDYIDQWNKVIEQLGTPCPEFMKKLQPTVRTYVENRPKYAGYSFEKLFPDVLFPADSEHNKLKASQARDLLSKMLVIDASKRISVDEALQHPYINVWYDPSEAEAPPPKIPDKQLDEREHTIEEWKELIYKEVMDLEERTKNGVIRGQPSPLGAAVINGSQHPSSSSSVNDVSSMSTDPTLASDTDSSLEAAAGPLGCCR

SMILES: O=c1cc(N2CCOCC2)oc2c(-c3ccccc3)cccc12 [LY-294002]
- residual activity [1]: 68%
- residual activity [2]: 60%
- residual activity [3]: 98%
- residual activity [4]: 91%
- residual activity [5]: 91%
- residual activity [6]: 72%
- residual activity [7]: 81%
- residual activity [8]: 101%
- residual activity [9]: 74%
- residual activity [10]: 108%
- residual activity [11]: 76%
- residual activity [12]: 13%
- IC50 [13]: 6.9 µM
- residual activity [14]: 104%
- residual activity [15]: 94%
- residual activity [16]: 83%
- residual activity [17]: 114%
- residual activity [18]: 53%
- residual activity [19]: 18%
- level, % of control [20]: 44%
- residual activity [21]: 103%
- residual activity [22]: 90%
- level, % of control [23]: 70%

SMILES: CN([C@@H](Cc1ccc(OS(=O)(=O)c2cccc3cnccc23)cc1)C(=O)N1CCN(c2ccccc2)CC1)S(=O)(=O)c1cccc2cnccc12
- residual activity [24]: 94%
- residual activity [25]: 93%
- residual activity [26]: 81%
- residual activity [27]: 97%
- residual activity [28]: 110%
- residual activity [29]: 78%
- residual activity [30]: 38%
- residual activity [31]: 70%
- residual activity [32]: 98%
- residual activity [33]: 92%
- residual activity [34]: 36%
- residual activity [35]: 67%
- residual activity [36]: 88%
- residual activity [37]: 104%
- IC50 [38]: 0.5 µM
- residual activity [39]: 103%
- residual activity [40]: 101%
- level, % of control [41]: 106%
- inhibition [42]: 0%
- residual activity [43]: 104%
- residual activity [44]: 92%
- level, % of control [45]: 89%
- residual activity [46]: 59%
- inhibition [47]: 96%
